Patent US20180194762A1 (Pharmacyclics LLC, priority 2017, published 2018)
Read-outs that look alike come from different tables or passages of the source.

Key:
Type in all cases: biochemical
Btk = target: T1, Btk (Homo sapiens, UniProt Q06187); test: Btk in vitro inhibitory activity (one of Method A TR-FRET, Method B electrophoretic mobility shift, Method C radiometric filter binding)
T1 construct: purified from insect cells as a full-length construct containing a N-terminal 6X-His tag; His6 (N); made in house; host or cells: insect cells (Method C)
Procedure, shortened: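 Method A: TR-FRET with 0.5 nM Btk at [ATP]=Km, EDTA-quenched, 665/615 nm ratio; Ki(app) converted to IC50. Method B: 1 nM full-length His6 human BTK, 1 μM FAM peptide, pH 7.5, mobility-shift product/sum ratio, 12-point 4-parameter fit. Method C: radiometric filter binding, 8 nM His-tagged BTK, 0.2 mg/mL poly-Glu-Tyr.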

TEC = target: T2, TEC (Homo sapiens, UniProt P42680); test: Inhibition of a panel of kinases (in vitro HotSpot kinase assay, 33P-ATP, 1 μM ATP); conditions: for IC50: HotSpot kinase assay, 1 μM ATP; for TEC/Btk: ratio of TEC IC50 to Btk IC50 (selectivity)
T2 sequence (P42680 1-631): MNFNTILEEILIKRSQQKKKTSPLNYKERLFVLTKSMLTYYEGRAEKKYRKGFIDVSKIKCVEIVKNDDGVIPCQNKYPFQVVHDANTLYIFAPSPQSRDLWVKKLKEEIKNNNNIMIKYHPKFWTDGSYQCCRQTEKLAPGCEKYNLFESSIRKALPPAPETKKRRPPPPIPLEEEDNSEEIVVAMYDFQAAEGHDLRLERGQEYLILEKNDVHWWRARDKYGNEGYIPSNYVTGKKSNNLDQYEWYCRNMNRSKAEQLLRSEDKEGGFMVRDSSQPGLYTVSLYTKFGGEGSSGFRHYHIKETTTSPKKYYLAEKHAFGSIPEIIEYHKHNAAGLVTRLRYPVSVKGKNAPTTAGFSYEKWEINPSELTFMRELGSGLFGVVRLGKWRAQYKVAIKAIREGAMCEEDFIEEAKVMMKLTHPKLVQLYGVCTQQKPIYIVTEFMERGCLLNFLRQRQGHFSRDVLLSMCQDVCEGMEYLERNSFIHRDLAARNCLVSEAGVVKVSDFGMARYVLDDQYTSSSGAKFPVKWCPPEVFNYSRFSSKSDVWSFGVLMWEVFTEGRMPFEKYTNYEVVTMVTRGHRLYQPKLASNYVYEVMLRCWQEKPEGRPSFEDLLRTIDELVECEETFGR
Procedure, shortened: (§1)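 Degree of kinase inhibition is determined in vitro using isolated enzymes, a matched substrate and radiolabelled ATP (1 μM).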

panel of kinases = target: T3, panel of kinases (Homo sapiens, UniProt P51813); test: Inhibition of a panel of kinases (in vitro HotSpot kinase assay, 33P-ATP, 1 μM ATP), other kinases; conditions: BMX wild-type, read-out: BMX-WT IC50
T3 sequence (P51813 1-675): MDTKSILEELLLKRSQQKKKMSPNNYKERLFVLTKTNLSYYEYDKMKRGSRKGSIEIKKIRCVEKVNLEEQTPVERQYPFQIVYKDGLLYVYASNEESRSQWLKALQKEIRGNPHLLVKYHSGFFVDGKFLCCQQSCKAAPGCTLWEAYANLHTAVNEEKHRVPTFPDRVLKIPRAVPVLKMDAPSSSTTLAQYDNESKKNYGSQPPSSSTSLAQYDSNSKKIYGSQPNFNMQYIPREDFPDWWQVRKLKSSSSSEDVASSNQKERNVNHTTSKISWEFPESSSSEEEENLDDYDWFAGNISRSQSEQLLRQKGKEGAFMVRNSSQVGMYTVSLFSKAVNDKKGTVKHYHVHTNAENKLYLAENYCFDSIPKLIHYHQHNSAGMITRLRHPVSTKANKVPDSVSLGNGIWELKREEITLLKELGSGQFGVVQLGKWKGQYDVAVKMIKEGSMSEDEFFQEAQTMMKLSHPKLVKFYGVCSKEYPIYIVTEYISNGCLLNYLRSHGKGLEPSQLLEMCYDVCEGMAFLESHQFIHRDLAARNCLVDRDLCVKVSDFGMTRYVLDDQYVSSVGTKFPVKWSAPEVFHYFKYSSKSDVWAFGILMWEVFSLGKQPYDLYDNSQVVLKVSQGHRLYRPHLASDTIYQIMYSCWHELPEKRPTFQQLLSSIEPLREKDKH
Procedure, shortened: as §1

[1] = wild-type Btk, read-out: Btk-WT IC50
[2] = method is one of A, B or C, not stated which, read-out: IC50 values against Btk

T1 sequence (Q06187 whole entry): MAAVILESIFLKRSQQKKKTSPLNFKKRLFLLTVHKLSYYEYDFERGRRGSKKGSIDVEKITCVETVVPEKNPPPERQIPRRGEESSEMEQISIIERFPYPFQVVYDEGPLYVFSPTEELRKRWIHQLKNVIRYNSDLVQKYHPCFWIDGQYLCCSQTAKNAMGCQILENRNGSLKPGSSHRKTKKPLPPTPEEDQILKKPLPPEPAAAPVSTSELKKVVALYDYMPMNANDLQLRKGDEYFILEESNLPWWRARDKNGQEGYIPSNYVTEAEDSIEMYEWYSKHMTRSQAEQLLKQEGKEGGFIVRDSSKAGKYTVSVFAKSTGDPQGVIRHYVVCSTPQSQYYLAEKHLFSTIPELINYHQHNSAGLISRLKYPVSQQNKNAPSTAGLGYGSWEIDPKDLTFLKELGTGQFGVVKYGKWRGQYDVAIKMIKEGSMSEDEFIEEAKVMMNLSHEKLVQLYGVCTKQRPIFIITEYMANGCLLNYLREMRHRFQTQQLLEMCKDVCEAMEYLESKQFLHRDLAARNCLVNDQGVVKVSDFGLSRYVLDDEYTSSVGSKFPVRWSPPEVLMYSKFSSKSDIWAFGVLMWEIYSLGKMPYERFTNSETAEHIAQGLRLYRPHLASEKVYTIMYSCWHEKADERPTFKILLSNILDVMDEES

Row | IC50 (Btk; [1]) [nM] | IC50 (TEC) [nM] | IC50 (panel of kinases) [nM] | TEC/Btk (TEC) | IC50 (Btk; [2]) [nM] | SMILES
1 | 0.0594 | 47 | 35.6 |  |  | C=CC(=O)N[C@@H]1CCN(c2n[nH]c3nccc(-c4ccc(CNC(=O)c5cc(C(C)(C)C)on5)c(F)c4)c23)C1 [Example 308, 5-tert-butyl-N-{[2-fluoro-4-(3-{(3R)-3-[(prop-2-enoyl)amino]pyrrolidin-1-yl}-1H-pyrazolo[3,4-b]pyridin-4-yl)phenyl]methyl}-1,2-oxazole-3-carboxamide]
2 | 0.19 | 110 | 115 | 579 | < 10 | C=CC(=O)N1CCC[C@@H](Nc2n[nH]c3nccc(-c4ccc(CNC(=O)c5noc(C(C)(C)C)n5)c(F)c4)c23)C1 [Example 85, 5-tert-butyl-N-{[2-fluoro-4-(3-{[(3R)-1-(prop-2-enoyl)piperidin-3-yl]amino}-1H-pyrazolo[3,4-b]pyridin-4-yl)phenyl]methyl}-1,2,4-oxadiazole-3-carboxamide]
3 | 10.1 | 5070 | 3960 | 502 |  | CC(C)(C)c1nc(C(=O)NCc2ccc(-c3ccnc4[nH]nc(NC5CCCC5)c34)cc2F)no1 [Example 257, 5-tert-butyl-N-({4-[3-(cyclopentylamino)-1H-pyrazolo[3,4-b]pyridin-4-yl]-2-fluorophenyl}methyl)-1,2,4-oxadiazole-3-carboxamide]
4 | 0.457 | 470 | 312 | 1028 | < 10 | C=CC(=O)N1CCC(Nc2n[nH]c3nccc(-c4ccc(CNC(=O)c5noc(C(C)(C)C)n5)c(F)c4)c23)CC1 [Example 105, 5-tert-butyl-N-{[2-fluoro-4-(3-{[1-(prop-2-enoyl)piperidin-4-yl]amino}-1H-pyrazolo[3,4-b]pyridin-4-yl)phenyl]methyl}-1,2,4-oxadiazole-3-carboxamide]
5 | 13.1 | 8350 | > 10000 | 637 |  | CC#CC(=O)N1CC[C@@H](Nc2n[nH]c3nccc(-c4cccc(NC(=O)c5ccc(C(C)(C)C)cc5)c4C)c23)C1 [Compound 10, N-[3-(3-{[(3R)-1-(but-2-ynoyl)pyrrolidin-3-yl]amino}-1H-pyrazolo[3,4-b]pyridin-4-yl)-2-methylphenyl]-4-tert-butylbenzamide]

Second part, the molecule before the results:

Row | SMILES | IC50 (Btk; [1]) [nM] | IC50 (TEC) [nM] | IC50 (panel of kinases) [nM] | TEC/Btk (TEC) | IC50 (Btk; [2]) [nM]
6 | CC(C)(C)c1noc(C(=O)NCc2ccc(-c3ccnc4[nH]nc(OC5CCNC5)c34)cc2F)n1 (centres unmarked) [Example 283, 3-tert-butyl-N-[(2-fluoro-4-{3-[(pyrrolidin-3-yl)oxy]-1H-pyrazolo[3,4-b]pyridin-4-yl}phenyl)methyl]-1,2,4-oxadiazole-5-carboxamide] | 10.9 | 7160 | 2970 |  | 
7 | CC(C)(C)c1ncc(C(=O)NCc2ccc(-c3ccnc4[nH]nc(N[C@H]5CC[C@H](O)CC5)c34)cc2F)o1 [Compound 39, 2-tert-butyl-N-{[2-fluoro-4-(3-{[(1r,4r)-4-hydroxycyclohexyl]amino}-1H-pyrazolo[3,4-b]pyridin-4-yl)phenyl]methyl}-1,3-oxazole-5-carboxamide] | 63.6 | 4680 | 3820 | 74 | 
8 | CC(=O)N[C@@H]1CCN(c2n[nH]c3nccc(-c4ccc(CNC(=O)c5noc(C(C)C)n5)c(F)c4)c23)C1 [Example 369, N-[(4-{3-[(3R)-3-acetamidopyrrolidin-1-yl]-1H-pyrazolo[3,4-b]pyridin-4-yl}-2-fluorophenyl)methyl]-5-(propan-2-yl)-1,2,4-oxadiazole-3-carboxamide] | 4.66 | 1480 | 1140 |  | 
9 | C[C@H]1CC[C@@H](Nc2n[nH]c3nccc(-c4ccc(CNC(=O)c5noc(C(C)(C)C)n5)c(F)c4)c23)CN1S(=O)(=O)C1CC1 [Example 128, 5-tert-butyl-N-{[4-(3-{[(3R,6S)-1-(cylcopropanesulfonyl)-6-methylpiperidin-3-yl]amino}-1H-pyrazolo[3,4-b]pyridin-4-yl)-2-fluorophenyl]methyl}-1,2,4-oxadiazole-3-carboxamide] | 1.29 | 500 | 1120 | 388 | < 10
10 | C[C@H]1CC[C@@H](Nc2n[nH]c3nccc(-c4ccc(CNC(=O)c5noc(C(C)(C)C)n5)c(F)c4)c23)CN1C(=O)NCC(F)(F)F [Example 138, (2S,5R)-5-{[4-(4-{[(5-tert-butyl-1,2,4-oxadiazol-3-yl)formamido]methyl}-3-fluorophenyl)-1H-pyrazolo[3,4-b]pyridin-3-yl]amino}-2-methyl-N-(2,2,2-trifluoroethyl)piperidine-1-carboxamide] | > 10000 | > 10000 | > 10000 |  | 
11 | CC(C)(C)c1ccc(C(=O)NCc2ccc(-c3ccnc4[nH]nc(N[C@H]5CCNC5)c34)cc2F)cc1 [Compound 37, 4-tert-butyl-N-{[2-fluoro-4-(3-{[(3S)-pyrrolidin-3-yl]amino}-1H-pyrazolo[3,4-b]pyridin-4-yl)phenyl]methyl}benzamide] | 53.9 | > 10000 | 8820 | >100 | 
12 | C[C@H]1CC[C@@H](Nc2n[nH]c3nccc(-c4ccc(CNC(=O)c5noc(C(C)(C)C)n5)cc4)c23)CN1C(=O)N(C)C [Example 256, (2S,5R)-5-{[4-(4-{[(5-tert-butyl-1,2,4-oxadiazole-3-carbonyl)amino]methyl}phenyl)-1H-pyrazolo[3,4-b]pyridin-3-yl]amino}-N,N,2-trimethylpiperidine-1-carboxamide] | 8.35 | 3590 | 5440 | 430 | 
13 | C=CC(=O)N1C[C@H](Nc2n[nH]c3nccc(-c4ccc(CNC(=O)c5cc(C(C)(C)C)on5)c(F)c4)c23)CC[C@@H]1C [Example 146, 5-tert-butyl-N-{[2-fluoro-4-(3-{[(3R,6S)-6-methyl-1-(prop-2-enoyl)piperidin-3-yl]amino}-1H-pyrazolo[3,4-b]pyridin-4-yl)phenyl]methyl}-1,2-oxazole-3-carboxamide] | 0.202 | 47 | 21 | 234 | < 10
14 | CC(C)(C)c1ccc(C(=O)NCc2cc(F)cc(-c3ccnc4[nH]nc(N[C@@H]5CCNC5)c34)c2)cc1 [Example 75, 4-tert-butyl-N-{[3-fluoro-5-(3-{[(3R)-pyrrolidin-3-yl]amino}-1H-pyrazolo[3,4-b]pyridin-4-yl)phenyl]methyl}benzamide] | > 10000 | > 10000 | > 10000 |  | 
15 | Cc1ccc(C(=O)NCc2ccc(-c3ccnc4[nH]nc(N[C@@H]5CCNC5)c34)cc2F)cc1 [Compound 32, (R)—N-(2-fluoro-4-(3-(pyrrolidin-3-ylamino)-1H-pyrazolo[3,4-b]pyridin-4-yl)benzyl)-4-methylbenzamide] | 328 | 5440 | 1410 | 17 | 
16 | CC(C)(C)c1nc(NC(=O)Nc2ccc(-c3ccnc4[nH]nc(N[C@@H]5CCNC5)c34)cc2F)no1 [Example 155, 3-(5-tert-butyl-1,2,4-oxadiazol-3-yl)-1-[2-fluoro-4-(3-{[(3R)-pyrrolidin-3-yl]amino}-1H-pyrazolo[3,4-b]pyridin-4-yl)phenyl]urea] | > 10000 | > 10000 | > 10000 |  | 
